Values of other authors as cited in publication PMC9128007 (ACS Pharmacology & Translational Science, 2022).

Tested on: panel of seven proteases including selected cysteine (3), serine (3), and aspartyl (1) proteases

CC(C)(C)[C@H](NC(=O)C(F)(F)F)C(=O)N1C[C@H]2[C@@H]([C@H]1C(=O)N[C@H](C#N)C[C@@H]1CCNC1=O)C2(C)C [Nirmatrelvir]
activity in a panel of seven proteases: lack of activity
